# pEC50, pIC50: −log10 of the molar value.
# Assays:
# [1] = Selectivity index, ratio of CC50 for human MT4 cells to EC50 for antiviral activity against HIV1 3B infected in human MT4 cells incubated for 5 days by MTT assay; format: toxicity, cell-based; conditions: MT4 cells (uninfected for CC50; HIV-1 3B infected for EC50)
# MT4 = experiment: Cytotoxicity against human MT4 cells assessed as reduction in cell viability incubated for 5 days by MTT assay; format: functional; conditions: MT4, 120 h
# [2] = tested on: Human immunodeficiency virus 1; experiment: Antiviral activity against HIV1 3B infected in human MT4 cells incubated assessed as reduction in virus-induced cytopathic effect for 5 days by MTT assay; format: functional, organism-based; conditions: Human immunodeficiency virus 1, 3B, MT4, 120 h
# [3] = molecular target: Human immunodeficiency virus type 1 reverse transcriptase (Human immunodeficiency virus 1, UniProt Q72547); experiment: Inhibition of recombinant wild type HIV1 reverse transcriptase p66/p51 incubated for 40 mins by picogreen dye-based spectrofluorometric analysis
# [4] = tested on: Human immunodeficiency virus 1; experiment: Antiviral activity against HIV1 harboring reverse transcriptase Y188L mutant infected in human MT4 cells assessed as reduction in virus-induced cytopathic effect incubated for 5 days by MTT assay; format: functional, organism-based; conditions: Human immunodeficiency virus 1, MT4, 120 h
# [5] = tested on: Human immunodeficiency virus 1; experiment: Antiviral activity against HIV1 harboring reverse transcriptase K103N mutant infected in human MT4 cells assessed as reduction in virus-induced cytopathic effect incubated for 5 days by MTT assay; format: functional, organism-based; conditions: Human immunodeficiency virus 1, MT4, 120 h
# [6] = tested on: Human immunodeficiency virus 1; experiment: Antiviral activity against HIV1 harboring reverse transcriptase Y181C mutant infected in human MT4 cells assessed as reduction in virus-induced cytopathic effect incubated for 5 days by MTT assay; format: functional, organism-based; conditions: Human immunodeficiency virus 1, MT4, 120 h
# [7] = tested on: Human immunodeficiency virus 1; experiment: Antiviral activity against HIV1 harboring reverse transcriptase L100I mutant infected in human MT4 cells assessed as reduction in virus-induced cytopathic effect incubated for 5 days by MTT assay; format: functional, organism-based; conditions: Human immunodeficiency virus 1, MT4, 120 h
# [8] = tested on: Human immunodeficiency virus 1; experiment: Antiviral activity against HIV1 harboring reverse transcriptase E138K mutant infected in human MT4 cells assessed as reduction in virus-induced cytopathic effect incubated for 5 days by MTT assay; format: functional, organism-based; conditions: Human immunodeficiency virus 1, MT4, 120 h
# [9] = molecular target: Human immunodeficiency virus type 1 reverse transcriptase (Human immunodeficiency virus 1) (UniProt Q72547); experiment: Ratio of IC50 for nevirapine to IC50 for test compound for recombinant wild type HIV1 reverse transcriptase p66/p51
# [10] = Aqueous solubility of compound at 2 mg measured for 24 hrs by HPLC analysis; format: physicochemical; conditions: aqueous medium
SMILES,selectivity ratio at 120 h [1],CC50 (MT4) [µM],pEC50 [2],further results
N#Cc1ccc(Nc2nccc(Oc3ccc(-c4ccc(C#N)cc4F)cc3F)n2)cc1,> 98000,> 294,8.51,–
Cc1cc(-c2ccc(C#N)cc2F)ccc1Oc1ccnc(Nc2ccc(C#N)cc2)n1,> 27500,> 297,7.97,pIC50 [3]: 8.06; pEC50 [4]: < 3.53; pEC50 [5]: 8.33; pEC50 [6]: 7.84; pEC50 [7]: 7.88; pEC50 [8]: 8.31; Ratio IC50 [9]: 21 to 109
COc1cc(-c2ccc(C#N)cc2)ccc1Oc1ccnc(Nc2ccc(C#N)cc2)n1,> 192000,> 298,8.80,pIC50 [3]: 8.03; pEC50 [4]: < 3.53; pEC50 [5]: 8.35; pEC50 [6]: 7.78; pEC50 [7]: 7.92; pEC50 [8]: 8.70; Ratio IC50 [9]: 21 to 109
Cc1cc(C#N)ccc1-c1ccc(Oc2ccnc(Nc3ccc(C#N)cc3)n2)c(F)c1,> 4460,> 297,7.18,–
N#Cc1ccc(Nc2nccc(Oc3ccc(-c4ccc(C#N)cc4)cc3C(F)(F)F)n2)cc1,> 40600,> 273,8.17,–
Cc1cc(-c2ccc(C#N)c(F)c2)ccc1Oc1ccnc(Nc2ccc(C#N)cc2)n1,> 17400,> 297,7.77,–
Cc1cc(Nc2ccnc(Nc3ccc(C#N)cc3)n2)ccc1-c1ccc(C#N)cc1,894,12.4,7.86,–
Cc1cc(Oc2ccnc(Nc3ccc(C#N)cc3)n2)ccc1-c1ccc(C#N)cc1,41,29.4,6.14,–
N#Cc1ccc(Nc2nccc(Oc3ccc(-c4ccc(C#N)cc4)c(C(F)(F)F)c3)n2)cc1,> 15000,> 273,7.74,–
Cc1cc(-c2ccc(C#N)cc2)ccc1Nc1ccnc(Nc2ccc(C#N)cc2)n1,4480,9.2,8.68,pIC50 [3]: > 8.21; pEC50 [4]: 6.62; pEC50 [5]: 8.52; pEC50 [6]: 8.05; pEC50 [7]: 7.78; pEC50 [8]: 8.52; Ratio IC50 [9]: 21 to 109
N#Cc1ccc(Nc2nccc(Nc3ccc(-c4ccc(C#N)cc4)c(F)c3)n2)cc1,> 18600,> 271,7.84,–
CC(=O)O.N#Cc1ccc(Nc2nccc(Nc3c(F)cc(-c4ccc(C#N)cc4)cc3F)n2)cc1,–,–,–,solubility at 24 h [10]: 0.34 µg/mL
N#Cc1ccc(Nc2nccc(Nc3c(F)cc(-c4ccc(C#N)cc4)cc3F)n2)cc1.O=CO,–,–,–,solubility at 24 h [10]: 0.35 µg/mL
Cc1cc(-c2ccc(Oc3ccnc(Nc4ccc(C#N)cc4)n3)c(F)c2)ccc1C#N,> 6020,> 297,7.30,–
COc1cc(Oc2ccnc(Nc3ccc(C#N)cc3)n2)ccc1-c1ccc(C#N)cc1,> 100000,> 298,8.51,–
N#Cc1ccc(Nc2nccc(Nc3c(F)cc(-c4ccc(C#N)cc4)cc3F)n2)cc1.O=C(O)C(F)(F)F,–,–,–,solubility at 24 h [10]: 0.35 µg/mL
N#Cc1ccc(Nc2nccc(Nc3c(F)cc(-c4ccc(C#N)cc4)cc3F)n2)cc1.O=S(=O)(O)c1ccccc1,–,–,–,solubility at 24 h [10]: 0.39 µg/mL
N#Cc1ccc(Nc2nccc(Oc3ccc(-c4ccc(C#N)c(Cl)c4)cc3Cl)n2)cc1,232,14.9,7.20,–

# Source: ChEMBL document CHEMBL4354822, “Ligand-Based Design of Nondimethylphenyl-Diarylpyrimidines with Improved Metabolic Stability, Safety, and Oral Pharmacokinetic Profiles” (J Med Chem, 2019)
